Data published in ChEMBL document CHEMBL3769377, “A synthesis, in silico, in vitro and in vivo study of thieno[2,3-b]pyridine anticancer analogues” (Medchemcomm, 2015).

What was measured:
[1] = molecular target: Inhibitor of nuclear factor kappa-B kinase subunit beta (Homo sapiens) (UniProt O14920); test: Inhibition of human recombinant IKKbeta assessed as residual activity at 10 uM after 1 hr by qPCR analysis relative to control
[2] = molecular target: cAMP-dependent protein kinase catalytic subunit alpha (Homo sapiens) (UniProt P17612); test: Inhibition of human recombinant PKACalpha assessed as residual activity at 10 uM after 1 hr by qPCR analysis relative to control
[3] = molecular target: Mitogen-activated protein kinase kinase kinase 9 (Homo sapiens) (UniProt P80192); test: Inhibition of human recombinant MLK1 assessed as residual activity at 10 uM after 1 hr by qPCR analysis relative to control
[4] = molecular target: Serine/threonine-protein kinase PLK1 (Homo sapiens) (UniProt P53350); test: Inhibition of human recombinant PLK1 assessed as residual activity at 10 uM after 1 hr by qPCR analysis relative to control
[5] = molecular target: Cyclin-dependent kinase 3 (Homo sapiens) (UniProt Q00526); test: Inhibition of human recombinant CDK3 assessed as residual activity at 10 uM after 1 hr by qPCR analysis relative to control
[6] = molecular target: Macrophage colony-stimulating factor 1 receptor (Homo sapiens) (UniProt P07333); test: Inhibition of human recombinant CSF1R assessed as residual activity at 10 uM after 1 hr by qPCR analysis relative to control
[7] = molecular target: Platelet-derived growth factor receptor beta (Homo sapiens) (UniProt P09619); test: Inhibition of human recombinant PDGFRB assessed as residual activity at 10 uM after 1 hr by qPCR analysis relative to control
[8] = molecular target: Atypical kinase COQ8A, mitochondrial (Homo sapiens) (UniProt Q8NI60); test: Inhibition of human recombinant ADCK3 assessed as residual activity at 10 uM after 1 hr by qPCR analysis relative to control
[9] = molecular target: TGF-beta receptor type-1 (Homo sapiens) (UniProt P36897); test: Inhibition of human recombinant TGFBR1 assessed as residual activity at 10 uM after 1 hr by qPCR analysis relative to control
[10] = molecular target: MAP/microtubule affinity-regulating kinase 3 (Homo sapiens) (UniProt P27448); test: Inhibition of human recombinant MARK3 assessed as residual activity at 10 uM after 1 hr by qPCR analysis relative to control
[11] = molecular target: Rho-associated protein kinase 2 (Homo sapiens) (UniProt O75116); test: Inhibition of human recombinant ROCK2 assessed as residual activity at 10 uM after 1 hr by qPCR analysis relative to control
[12] = molecular target: Phosphatidylinositol 4,5-bisphosphate 3-kinase catalytic subunit gamma isoform (Homo sapiens) (UniProt P48736); test: Inhibition of human recombinant PIK3CG assessed as residual activity at 10 uM after 1 hr by qPCR analysis relative to control

Inhibitor of nuclear factor kappa-B kinase subunit beta (Homo sapiens), sequence (O14920 whole entry): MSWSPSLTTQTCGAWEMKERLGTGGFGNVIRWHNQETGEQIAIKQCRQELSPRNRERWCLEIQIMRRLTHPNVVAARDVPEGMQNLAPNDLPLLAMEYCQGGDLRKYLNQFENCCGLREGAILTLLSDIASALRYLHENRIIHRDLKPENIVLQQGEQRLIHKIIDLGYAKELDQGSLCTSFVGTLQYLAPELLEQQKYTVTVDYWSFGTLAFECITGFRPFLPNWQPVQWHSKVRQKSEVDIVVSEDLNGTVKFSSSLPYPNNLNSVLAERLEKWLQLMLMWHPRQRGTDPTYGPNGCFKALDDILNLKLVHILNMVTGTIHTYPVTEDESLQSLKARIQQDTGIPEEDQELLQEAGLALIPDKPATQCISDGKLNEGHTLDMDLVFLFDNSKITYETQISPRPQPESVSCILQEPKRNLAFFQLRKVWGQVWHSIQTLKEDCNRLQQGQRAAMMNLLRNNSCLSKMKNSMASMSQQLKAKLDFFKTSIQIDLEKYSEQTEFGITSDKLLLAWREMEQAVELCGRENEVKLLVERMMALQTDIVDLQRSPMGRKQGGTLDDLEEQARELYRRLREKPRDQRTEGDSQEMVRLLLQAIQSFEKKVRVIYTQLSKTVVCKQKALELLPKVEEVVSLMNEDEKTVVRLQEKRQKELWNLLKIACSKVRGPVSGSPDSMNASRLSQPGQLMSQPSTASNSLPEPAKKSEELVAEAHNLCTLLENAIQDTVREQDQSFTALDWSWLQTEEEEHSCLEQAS
Platelet-derived growth factor receptor beta (Homo sapiens), sequence (P09619 whole entry): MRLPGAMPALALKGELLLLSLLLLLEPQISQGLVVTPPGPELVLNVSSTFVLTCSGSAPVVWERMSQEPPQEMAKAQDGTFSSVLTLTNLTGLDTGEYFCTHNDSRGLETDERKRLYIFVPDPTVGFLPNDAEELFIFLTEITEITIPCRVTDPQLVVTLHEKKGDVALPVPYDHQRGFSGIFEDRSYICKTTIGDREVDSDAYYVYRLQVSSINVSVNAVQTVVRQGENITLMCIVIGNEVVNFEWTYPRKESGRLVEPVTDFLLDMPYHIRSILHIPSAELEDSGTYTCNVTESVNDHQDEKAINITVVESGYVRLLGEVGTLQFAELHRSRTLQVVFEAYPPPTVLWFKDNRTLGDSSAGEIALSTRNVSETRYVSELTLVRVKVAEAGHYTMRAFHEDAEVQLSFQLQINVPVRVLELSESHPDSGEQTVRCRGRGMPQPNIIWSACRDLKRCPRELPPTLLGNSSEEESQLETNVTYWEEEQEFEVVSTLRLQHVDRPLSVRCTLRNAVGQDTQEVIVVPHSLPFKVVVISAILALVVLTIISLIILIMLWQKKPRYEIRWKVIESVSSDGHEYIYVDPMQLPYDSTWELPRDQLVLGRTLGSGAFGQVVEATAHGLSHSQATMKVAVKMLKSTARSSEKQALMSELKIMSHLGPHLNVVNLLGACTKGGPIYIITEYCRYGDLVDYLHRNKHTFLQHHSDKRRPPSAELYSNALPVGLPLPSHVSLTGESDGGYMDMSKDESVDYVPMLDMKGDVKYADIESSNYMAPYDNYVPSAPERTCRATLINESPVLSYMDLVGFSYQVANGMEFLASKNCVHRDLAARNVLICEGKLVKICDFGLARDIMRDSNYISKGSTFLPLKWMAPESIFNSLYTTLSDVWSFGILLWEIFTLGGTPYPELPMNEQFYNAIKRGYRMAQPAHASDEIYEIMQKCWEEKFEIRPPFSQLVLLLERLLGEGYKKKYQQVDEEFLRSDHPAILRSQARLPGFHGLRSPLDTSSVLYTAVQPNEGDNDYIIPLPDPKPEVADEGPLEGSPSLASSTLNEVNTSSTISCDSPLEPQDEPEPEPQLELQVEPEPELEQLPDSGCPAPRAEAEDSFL
TGF-beta receptor type-1 (Homo sapiens), sequence (P36897 whole entry): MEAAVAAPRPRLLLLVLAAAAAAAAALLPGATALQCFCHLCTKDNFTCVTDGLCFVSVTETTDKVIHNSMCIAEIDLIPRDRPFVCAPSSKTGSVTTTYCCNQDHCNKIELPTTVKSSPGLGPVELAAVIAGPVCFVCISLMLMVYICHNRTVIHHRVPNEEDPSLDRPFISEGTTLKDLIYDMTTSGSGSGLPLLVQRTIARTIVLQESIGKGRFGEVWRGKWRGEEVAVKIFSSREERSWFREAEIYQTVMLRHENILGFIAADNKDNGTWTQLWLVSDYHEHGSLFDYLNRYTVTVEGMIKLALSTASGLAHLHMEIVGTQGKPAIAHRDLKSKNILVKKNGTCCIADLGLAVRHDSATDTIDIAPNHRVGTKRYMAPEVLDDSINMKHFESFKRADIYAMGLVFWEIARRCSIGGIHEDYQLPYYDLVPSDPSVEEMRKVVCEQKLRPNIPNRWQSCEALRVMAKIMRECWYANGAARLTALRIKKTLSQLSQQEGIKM
Mitogen-activated protein kinase kinase kinase 9 (Homo sapiens), sequence (P80192 whole entry, looked up): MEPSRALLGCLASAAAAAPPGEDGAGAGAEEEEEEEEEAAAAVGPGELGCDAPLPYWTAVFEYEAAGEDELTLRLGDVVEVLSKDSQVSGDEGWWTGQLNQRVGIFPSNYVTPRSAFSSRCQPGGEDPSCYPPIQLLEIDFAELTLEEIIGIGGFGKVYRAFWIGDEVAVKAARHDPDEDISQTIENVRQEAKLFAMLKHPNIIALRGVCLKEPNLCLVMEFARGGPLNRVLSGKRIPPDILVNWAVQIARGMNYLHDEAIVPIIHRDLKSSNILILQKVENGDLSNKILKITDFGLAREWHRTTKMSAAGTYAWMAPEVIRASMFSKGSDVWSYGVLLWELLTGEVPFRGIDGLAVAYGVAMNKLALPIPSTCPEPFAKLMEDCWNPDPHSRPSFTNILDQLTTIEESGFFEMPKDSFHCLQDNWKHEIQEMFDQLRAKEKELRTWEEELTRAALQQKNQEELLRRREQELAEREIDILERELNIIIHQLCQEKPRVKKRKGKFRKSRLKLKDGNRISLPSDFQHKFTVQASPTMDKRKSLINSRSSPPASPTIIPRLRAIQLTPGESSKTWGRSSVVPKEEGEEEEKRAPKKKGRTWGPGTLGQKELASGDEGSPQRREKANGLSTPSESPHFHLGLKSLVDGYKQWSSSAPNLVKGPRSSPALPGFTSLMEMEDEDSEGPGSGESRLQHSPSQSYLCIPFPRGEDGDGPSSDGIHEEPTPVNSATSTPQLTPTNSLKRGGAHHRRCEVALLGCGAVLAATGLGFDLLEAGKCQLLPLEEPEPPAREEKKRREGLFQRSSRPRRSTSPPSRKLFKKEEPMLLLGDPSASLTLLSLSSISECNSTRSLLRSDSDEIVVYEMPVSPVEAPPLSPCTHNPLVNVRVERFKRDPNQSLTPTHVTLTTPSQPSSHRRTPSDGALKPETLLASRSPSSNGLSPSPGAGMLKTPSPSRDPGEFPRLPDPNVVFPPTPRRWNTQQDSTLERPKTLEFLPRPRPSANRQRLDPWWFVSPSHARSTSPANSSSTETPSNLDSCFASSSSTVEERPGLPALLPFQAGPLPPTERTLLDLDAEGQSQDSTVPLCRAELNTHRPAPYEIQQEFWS
Macrophage colony-stimulating factor 1 receptor (Homo sapiens), sequence (P07333 whole entry): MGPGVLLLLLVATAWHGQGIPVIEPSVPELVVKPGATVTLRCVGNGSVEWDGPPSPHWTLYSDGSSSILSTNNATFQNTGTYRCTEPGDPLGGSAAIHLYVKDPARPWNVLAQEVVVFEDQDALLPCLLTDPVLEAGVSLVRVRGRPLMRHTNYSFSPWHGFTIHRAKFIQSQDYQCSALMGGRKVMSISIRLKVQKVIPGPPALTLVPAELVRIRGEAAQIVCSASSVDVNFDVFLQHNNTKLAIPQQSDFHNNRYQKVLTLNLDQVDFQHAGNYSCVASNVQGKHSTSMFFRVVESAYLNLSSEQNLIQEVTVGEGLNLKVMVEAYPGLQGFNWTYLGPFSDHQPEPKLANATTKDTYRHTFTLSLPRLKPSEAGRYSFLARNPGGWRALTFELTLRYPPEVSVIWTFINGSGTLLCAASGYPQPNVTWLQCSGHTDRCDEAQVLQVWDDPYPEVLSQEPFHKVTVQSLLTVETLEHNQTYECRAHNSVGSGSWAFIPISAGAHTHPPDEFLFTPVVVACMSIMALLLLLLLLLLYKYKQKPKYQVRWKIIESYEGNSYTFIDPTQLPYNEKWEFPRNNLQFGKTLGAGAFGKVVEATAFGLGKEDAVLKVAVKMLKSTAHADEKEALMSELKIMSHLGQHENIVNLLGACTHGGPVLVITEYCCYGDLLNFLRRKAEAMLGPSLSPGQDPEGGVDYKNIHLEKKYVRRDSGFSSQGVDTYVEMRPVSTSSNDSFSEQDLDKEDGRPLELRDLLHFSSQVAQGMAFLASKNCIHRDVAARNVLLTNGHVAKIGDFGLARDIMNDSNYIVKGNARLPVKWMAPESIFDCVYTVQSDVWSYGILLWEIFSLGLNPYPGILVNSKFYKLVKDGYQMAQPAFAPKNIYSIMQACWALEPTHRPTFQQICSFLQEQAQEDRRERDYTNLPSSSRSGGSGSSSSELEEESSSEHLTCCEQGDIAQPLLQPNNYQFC
Cyclin-dependent kinase 3 (Homo sapiens), sequence (Q00526 whole entry, looked up): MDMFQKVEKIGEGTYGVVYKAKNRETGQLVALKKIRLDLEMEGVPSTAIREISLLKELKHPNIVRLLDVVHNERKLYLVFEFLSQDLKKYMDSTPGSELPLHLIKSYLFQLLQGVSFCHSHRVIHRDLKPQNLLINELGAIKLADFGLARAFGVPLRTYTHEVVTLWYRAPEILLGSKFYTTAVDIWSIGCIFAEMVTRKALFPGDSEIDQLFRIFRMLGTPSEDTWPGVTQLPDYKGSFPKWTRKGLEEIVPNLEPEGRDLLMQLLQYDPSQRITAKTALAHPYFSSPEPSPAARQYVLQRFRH

Cc1c(Cl)cccc1NC(=O)c1sc2nc3c(cc2c1N)C(=O)CC3
Activity [1]: 100%
Activity [2]: 94%
Activity [3]: 99%
Activity [4]: 91%
Activity [5]: 100%
Activity [6]: 100%
Activity [7]: 95%
Activity [8]: 96%
Activity [9]: 100%
Activity [10]: 96%
Activity [11]: 100%
Activity [12]: 100%
